Tested on: 966289-007-R4-J1-PDC complex spheroid viability
Test: Anticancer human tumor 966289-007-R4-J1-PDC patient-derived pancreatic adenocarcinoma cell line growth inhibition [GQUAD]
Details: for IC50: curve of first compound; for viability, T/C: stronger effect = lower value
Source text: DNA G-quadruplex Stabilizer Agents in Combinations in Complex Spheroids
A high-throughput screen of multi-cell type tumor spheroids was designed to identify active combinations of DNA G-quadruplex stabilizer agents and targeted small molecules. Complex spheroids include a stromal component modeled by human endothelial cells (HUVEC) and fibroblasts modeled by human mesenchymal stem cells (MSCs). The concentration ranges selected for each drug and investigational agent were based upon clinically achievable concentrations if the clinical Cmax of the agent was known.
Compounds. The drugs and investigational agents: pidnarulex (CX-5461; NSC782164), APTO-253 (NSC789042), BRACO-19 (NSC847499), peposertib (NSC802822), ceralasertib (NSC780249), elimusertib (NSC800525), camonsertib (NSC841442), AZD-1390 (NSC803789), olaparib (NSC753686), talazoparib (NSC767125), ART-558 (NSC835418), sotorasib (NSC818433), MRTX-1133 (NSC836407), SN-38 (NSC673596), topotecan (NSC609699), etoposide (NSC141540), doxorubicin (NSC123127), gemcitabine (NSC613327), 5-fluorouracil (NSC19893), paclitaxel (NSC125973), vemurafenib (NSC761431), panobinostat (NSC761190), R-306465 (JNJ-16241199; NSC773264), adavosertib (NSC754352), TP-3654 (NSC805149), carboplatin (NSC241240), KSQ-4279 (NSC840948), and staurosporine (NSC755774) were obtained from the National Cancer Institute (NCI) Developmental Therapeutics Program Chemical Repository (34). The FDA-approved anticancer drug set is available from the NCI Developmental Therapeutics Program. […] The stock solutions were prepared in dimethyl sulfoxide (DMSO, Sigma-Aldrich, St. Louis, MO, cat. D2650) at 800-fold the tested concentration and stored at -70 degrees C prior to their use. All drugs and investigational agents were tested over a range starting from a high concentration at or near the clinical Cmax and decreasing in half-log increments. If the clinical Cmax for an agent had not been determined, the highest concentration tested was 10 microM.
2.3 Cell Culture. All cells were maintained in an incubator at 37 degrees C and 5% CO2 with 95% humidity. The PDC lines were cultured according to standard operating procedures established by the NCI PDMR. All PDCs were thawed and cultured in Matrigel-coated flasks prepared with a working solution of 1X Ham's F-12 nutrient mix, without supplementation (Invitrogen, cat. 11765054), 100 U/mL penicillin-streptomycin (Invitrogen, cat. 15140122), and 2.5% Matrigel (Corning Inc., cat. 354248) for the first three passages. The 857933-349-R-J2-PDC line was cultured in 6C/Colon 1B media, which includes advanced DMEM/F-12 (Thermo Fisher Scientific, cat. 12634028), 10 mM HEPES (Thermo Fisher Scientific, cat. 15630080), 1X GlutaMAX supplement (Thermo Fisher Scientific, cat. 35050061), 0.1 mg/mL primocin (InvivoGen, cat. ant-pm-2), 10% defined fetal bovine serum, heat inactivated (HyClone Laboratories Inc., cat. SH30070.03HI), 50% L-WRN conditioned media (ATCC, cat. CRL-3276), 1.25 mM N-Acetyl-L-cysteine (Sigma-Aldrich, cat. A9165), 10 mM nicotinamide (Sigma-Aldrich, cat. N0636), 1X B-27 supplement (Thermo Fisher Scientific, cat. 17504044), 1X N-2 supplement (Thermo Fisher Scientific, cat. 17502048), 10 microM Y-27632 dihydrochloride (Tocris Bioscience, cat. 1254), and 50 ng/mL human EGF recombinant protein (Thermo Fisher Scientific, cat. PHG0311). The 485176-168-R4-J1-PDC line was cultured in Panc media, which includes all 6C/Colon 1B media components plus 100 ng/mL human FGF-10 (Thermo Fisher Scientific, cat. 100-26), 500 nM SB-431542 (Selleckchem, cat. S1067), and gastrin (Tocris, cat. 3006).
[…]
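Further: spheroids exposed to the agents for seven days before readout.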
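Wherever viability, T/C is given: percent viability relative to DMSO vehicle control wells taken as 100%.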

How did the IC50 (second compound 0.0316 µM) turn out when `Cc1[nH]c2ccccc2c1CCNCc1ccc(/C=C/C(=O)NO)cc1` + Cc1cnc(CNC(=O)c2c(=O)c3ccc(N4CCCN(C)CC4)nc3n3c2sc2ccccc23)cn1 was run?
Its IC50 is 46.9 nM.

What about the IC50 (second compound 0.1 µM) of the same compound?
The IC50 was under 0.999 nM.

What about the IC50 (second compound 0.316 µM) of the same compound?
The IC50 was under 0.999 nM.

And the IC50 (second compound 1 µM)?
The IC50 was under 0.999 nM.

What about the IC50 (second compound 3.16 µM) of the same compound?
Its IC50 is under 0.999 nM.

What about the IC50 (second compound 10 µM) of the same compound?
Its IC50 is under 0.999 nM.

What about the viability, T/C (second compound 0.0316 µM, first compound 0.000999 µM) of the same compound?
Its viability, T/C is 120%.

And the viability, T/C (second compound 0.0316 µM, first compound 0.00316 µM)?
Its viability, T/C is 109%.

And the viability, T/C (second compound 0.0316 µM, first compound 0.00999 µM)?
Its viability, T/C is 110%.

What about the viability, T/C (second compound 0.0316 µM, first compound 0.0316 µM) of the same compound?
The viability, T/C was 72%.

And the viability, T/C (second compound 0.0316 µM, first compound 0.0999 µM)?
Its viability, T/C is 7.63%.

And the viability, T/C (second compound 0.0316 µM, first compound 0.316 µM)?
The viability, T/C was 2.65%.

What about the viability, T/C (second compound 0.1 µM, first compound 0.000999 µM) of the same compound?
The viability, T/C was 36.1%.

What about the viability, T/C (second compound 0.1 µM, first compound 0.00316 µM) of the same compound?
The viability, T/C was 41.1%.

What about the viability, T/C (second compound 0.1 µM, first compound 0.00999 µM) of the same compound?
The viability, T/C was 39.4%.

What about the viability, T/C (second compound 0.1 µM, first compound 0.0316 µM) of the same compound?
The viability, T/C was 20.3%.

And the viability, T/C (second compound 0.1 µM, first compound 0.0999 µM)?
The viability, T/C was 5.43%.

What about the viability, T/C (second compound 0.1 µM, first compound 0.316 µM) of the same compound?
Its viability, T/C is 2.01%.

What about the viability, T/C (second compound 0.316 µM, first compound 0.000999 µM) of the same compound?
The viability, T/C was 10.3%.

What about the viability, T/C (second compound 0.316 µM, first compound 0.00316 µM) of the same compound?
Its viability, T/C is 10.7%.

And the viability, T/C (second compound 0.316 µM, first compound 0.00999 µM)?
Its viability, T/C is 9.3%.

And the viability, T/C (second compound 0.316 µM, first compound 0.0316 µM)?
Its viability, T/C is 5.04%.

And the viability, T/C (second compound 0.316 µM, first compound 0.0999 µM)?
The viability, T/C was 2.95%.

What about the viability, T/C (second compound 0.316 µM, first compound 0.316 µM) of the same compound?
Its viability, T/C is 1.25%.

What about the viability, T/C (second compound 1 µM, first compound 0.000999 µM) of the same compound?
The viability, T/C was 7.03%.

What about the viability, T/C (second compound 1 µM, first compound 0.00316 µM) of the same compound?
The viability, T/C was 5.38%.

And the viability, T/C (second compound 1 µM, first compound 0.00999 µM)?
The viability, T/C was 5.15%.

What about the viability, T/C (second compound 1 µM, first compound 0.0316 µM) of the same compound?
Its viability, T/C is 3.16%.

What about the viability, T/C (second compound 1 µM, first compound 0.0999 µM) of the same compound?
The viability, T/C was 1.45%.

And the viability, T/C (second compound 1 µM, first compound 0.316 µM)?
The viability, T/C was 0.33%.

And the viability, T/C (second compound 3.16 µM, first compound 0.000999 µM)?
Its viability, T/C is 3.98%.

What about the viability, T/C (second compound 3.16 µM, first compound 0.00316 µM) of the same compound?
Its viability, T/C is 4.39%.

What about the viability, T/C (second compound 3.16 µM, first compound 0.00999 µM) of the same compound?
The viability, T/C was 3.78%.

What about the viability, T/C (second compound 3.16 µM, first compound 0.0316 µM) of the same compound?
Its viability, T/C is 0.2%.

And the viability, T/C (second compound 3.16 µM, first compound 0.0999 µM)?
Its viability, T/C is 0.08%.

What about the viability, T/C (second compound 3.16 µM, first compound 0.316 µM) of the same compound?
Its viability, T/C is 0.8%.

And the viability, T/C (second compound 10 µM, first compound 0.000999 µM)?
The viability, T/C was 0.11%.

And the viability, T/C (second compound 10 µM, first compound 0.00316 µM)?
The viability, T/C was 0.57%.

What about the viability, T/C (second compound 10 µM, first compound 0.00999 µM) of the same compound?
The viability, T/C was 0.17%.

And the viability, T/C (second compound 10 µM, first compound 0.0316 µM)?
Its viability, T/C is 0.39%.

And the viability, T/C (second compound 10 µM, first compound 0.0999 µM)?
The viability, T/C was 0.16%.

And the viability, T/C (second compound 10 µM, first compound 0.316 µM)?
The viability, T/C was 0.17%.

From PubChem BioAssay AID2060488 (Molecular Pharmacology Branch, DTP, NCI, 2025)
